Each structure is given as a SMILES string.

This assay deals with dermal equivalent comprising a collagen matrix seeded with normal human fibroblasts. Briefly: Spontaneous contraction of attached dermal equivalent (dermo-decontracting effect). It is filed as cell-based. The settings on record: for inhibition of contraction of the dermal equivalent (in words): different concentrations. The source says:
The principle of this test entails studying the dermo-decontracting effect of (R)(+)-trans-N-(4-pyridyl)-4-(1-aminoethyl)cyclohexanecarboxamide dihydrochloride (Y-27632) on a model of dermal equivalent comprising a collagen matrix seeded with normal human fibroblasts. These conditions are intended to mimic in vitro the dermal contractile phenomena that take place during facial expressions. Under these conditions, specifically, the cells spontaneously express tensile forces that induce a retraction of the collagen gel. […] Measurement of this area makes it possible to evaluate the relaxation effects of substances placed in contact beforehand with the dermal equivalent. Four series of 3 attached dermal equivalents containing normal human fibroblasts are prepared: a control series without any treatment, and three series treated with (R)(+)-trans-N-(4-pyridyl)-4-(1-aminoethyl)cyclohexanecarboxamide dihydrochloride at different concentrations. The experiment is repeated three times. The dermal equivalents are prepared as described in Asselineau et al., Exp. Cell. Res. 1985, 159, 536-539; Models in Dermatology, 1987, Vol. 33, pp. 1-7, in the following proportions: [table] The treated dermal equivalent differs from the control dermal equivalent in that variable amounts of (R)(+)-trans-N-(4-pyridyl)-4-(1-aminoethyl)cyclohexanecarboxamide dihydrochloride are added thereto. The collagen used is type I collagen (commercial solution), but a collagen of type III or IV may also be used. It is extracted from rat tails or from calf skin by acidic hydrolysis and stored in acidic medium at +4° C.; it naturally polymerizes on heating to 37° C. and on reducing the level of acidity. The collagen is predialyzed against successive baths of water+acetic acid. The protocol is as follows: 1.76×MEM medium in the presence of additives (1% glutamine, 1% nonessential amino acids, 1% sodium pyruvate, 1% fungizone and 1% penicillin/streptomycin), foetal calf serum and 0.1 N NaOH are introduced into a sterile flask tube. The fibroblasts isolated from human skin explants are then added at a concentration of 1.4×10^5 cells per 1 ml of culture medium. A volume/volume mixture of collagen in acetic acid to 1/1000 is then added slowly, against the wall of the tube so as to observe the appearance of a whitish cloud. The whole is then mixed cautiously and distributed in the wells of a 12-well culture plate (of the type Costar reference 3512) at a rate of 0.5 ml of mixture per cm^2. The culture plate is then placed in an incubator at 37° C. with 5% CO2. Once formed after polymerization of the collagen, the dermal equivalents are left adhering to the culture support for 3 days and then detached from the support in order for the contraction to be able to start. These attached dermal equivalents are removed from the incubator for the taking of the images to measure their surface area, for each point of the contraction kinetics (0, 4, 8 and 24 hours). They are immediately returned to the incubator between each measuring point. The evaluation of the spontaneous contraction of the treated dermal equivalents (treated with (R)(+)-trans-N-(4-pyridyl)-4-(1-aminoethyl)cyclohexanecarboxamide dihydrochloride) and control dermal equivalents (without (R)(+)-trans-N-(4-pyridyl)-4-(1-aminoethyl)cyclohexanecarboxamide) is performed by measuring their surface area, at different times after the start of the spontaneous contraction. To do this, a digital image is acquired for each treated or untreated dermal equivalent using a camera (Sony DXC-107P CCD-Iris camera) and the area is then calculated on each image using an image analysis system (Zeiss Axiovision 3.0). […]

The mark [1] stands for this setting: 0.1 μM, 4 hours after detaching from support.
Setting [2] is: 0.1 μM, 8 hours after detaching from support.
Where [3] appears, read: 0.1 μM, 24 hours after detaching from support.
[4] abbreviates: 1 μM, 4 hours after detaching from support.
[5] abbreviates: 1 μM, 8 hours after detaching from support.
The mark [6] stands for this setting: 1 μM, 24 hours after detaching from support.

Turning to `O=S(=O)(c1cccc2cnccc12)N1CCCNCC1` [1-(5-isoquinolinesulfonyl)homopiperazine], the “inhibition of contraction of the dermal equivalent (in words)” value is recorded as “dose-dependent inhibition of contraction”. Moreover, the “reduction of percentage of contraction relative to the control” value under setting [1] worked out at 2.6%. Moreover, under setting [2], the “reduction of percentage of contraction relative to the control” value came out at 2.4%. Besides, the “reduction of percentage of contraction relative to the control” value under setting [3] amounted to 1.5%. The “reduction of percentage of contraction relative to the control” value under setting [4] came out at 8%. In addition, the “reduction of percentage of contraction relative to the control” value under setting [5] is 9.5%. For the same compound, under setting [6], the “reduction of percentage of contraction relative to the control” value came to 8.2%. The “reduction of percentage of contraction relative to the control” value (5 μM, 4 hours after detaching from support) was found to be 17%. The “reduction of percentage of contraction relative to the control” value (5 μM, 8 hours after detaching from support) is 19.4%. Further, where the note is “5 μM, 24 hours after detaching from support”, the “reduction of percentage of contraction relative to the control” value amounted to 22.2%. Besides, the “effectiveness compared with Y-27632 at the same concentrations” value (same concentrations) is reported as “less effective than”.
Consider `C[C@@H](N)[C@H]1CC[C@H](C(=O)Nc2ccncc2)CC1.Cl.Cl` [(R)(+)-trans-N-(4-pyridyl)-4-(1-aminoethyl)cyclohexanecarboxamide dihydrochloride], for which the “reversibility of the inhibition of contraction” value is listed as “reversible” and the “inhibition of contraction of the dermal equivalent (in words)” value was “dose-dependent inhibition of contraction”. The “reduction of percentage of contraction relative to the control” value under setting [1] is recorded as 6.1%. The “reduction of percentage of contraction relative to the control” value under setting [2] is given as 6.4%. For the same compound, under setting [3], the “reduction of percentage of contraction relative to the control” value is listed as 7.2%. Moreover, the “reduction of percentage of contraction relative to the control” value under setting [4] amounted to 20.6%. Moreover, under setting [5], the “reduction of percentage of contraction relative to the control” value was 24.4%. Moreover, under setting [6], the “reduction of percentage of contraction relative to the control” value was 29.3%.

The values are drawn from US20050222130A1, “Inhibitors of RhoA kinase production/activation for relaxing the features of and/or for decontracting the skin” (L'OREAL, priority 2004, published 2005).
